{"source": "patent US7138361B2", "about": "“Herbicidal heterocycles” (E. I. du Pont de Nemours and Company, priority 2000, dated 2006)", "type_in_all_cases": "in vivo", "key": {"[1]": {"system": "wheat (Triticum aestivum)", "assay": "Test B postemergence", "details": "Rate 500 g/ha, scale 0 to 100, 0 is no effect, 100 is complete control, 13 to 15 days", "outline": "(§1)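 Post-treatment, species sat 13–15 days under greenhouse conditions before visual scoring against controls, 0 (no effect) through 100 (complete control). Application preemergence to sown seeds or postemergence at 1- to 4-leaf stage, using a non-phytotoxic solvent/surfactant formulation.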"}, "corn (Zea mays) [2]": {"system": "corn (Zea mays)", "assay": "Test B postemergence", "details": "13 to 15 days", "outline": "as §1"}, "wild oat (Avena fatua)": {"system": "wild oat (Avena fatua)", "assay": "Test B postemergence", "details": "Rate 500 g/ha, scale 0 to 100, 0 is no effect, 100 is complete control, 13 to 15 days", "outline": "as §1"}, "[3]": {"system": "barnyardgrass (Echinochloa crus-galli)", "assay": "Test B postemergence", "details": "13 to 15 days", "outline": "as §1"}, "Sunflower": {"system": "Sunflower", "assay": "Test C preemergence", "details": "Rate 250 g/ha, scale 0 to 100, 0 no effect, 100 complete control"}, "[4]": {"system": "duck salad (Heteranthera limosa)", "assay": "Test C flooded paddy test", "details": "for Ducksalad plant response rating: Flooded Paddy, scale 0 to 100, 0 no effect, 100 complete control; for Plant response rating, Ducksalad: flooded paddy test, scale 0 to 100 (0 no effect, 100 complete control)", "outline": "(§2)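 Ratings come from visual comparison with control plants after 12 to 14 days in the greenhouse. Each species was at the 2-leaf stage when the flooded paddy was treated. Scores run from 0, meaning no effect, to 100, meaning complete control.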"}, "[5]": {"system": "smallflower flatsedge (Cyperus difformis)", "assay": "Test C flooded paddy test", "details": "for Flatsedge plant response rating: Flooded Paddy, scale 0 to 100, 0 no effect, 100 complete control; for Plant response rating, Flatsedge: flooded paddy test, scale 0 to 100 (0 no effect, 100 complete control)", "outline": "as §2"}, "rice (Oryza saliva)": {"system": "rice (Oryza saliva)", "assay": "Test C flooded paddy test", "details": "for Rice plant response rating: Flooded Paddy, scale 0 to 100, 0 no effect, 100 complete control; for Plant response rating, Rice: flooded paddy test, scale 0 to 100 (0 no effect, 100 complete control)", "outline": "as §2"}, "[6]": {"system": "barnyardgrass (Echinochloa crus-galli)", "assay": "Test C flooded paddy test", "details": "for Barnyardgrass plant response rating: Flooded Paddy, scale 0 to 100, 0 no effect, 100 complete control; for Plant response rating, Barnyardgrass: flooded paddy test, scale 0 to 100 (0 no effect, 100 complete control)", "outline": "as §2"}, "[7]": {"system": "johnsongrass (Sorghum halepense)", "assay": "Test C preemergence", "outline": "(§3)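 Compounds in non-phytotoxic solvent with surfactant applied preemergence to planted seeds and postemergence to plants at 1- to 4-leaf stage (2–18 cm). Kept in greenhouse 12–14 days, then visually rated against controls on a 0 (no effect) to 100 (complete control) scale.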"}, "[8]": {"system": "pigweed (Amaranthus retroflexus)", "assay": "Test C preemergence", "outline": "as §3"}, "Nightshade": {"system": "Nightshade", "assay": "Test C preemergence"}, "[9]": {"system": "lambsquarters (Chenopodium album)", "assay": "Test C preemergence", "outline": "as §3"}, "soybean (Glycine max)": {"system": "soybean (Glycine max)", "assay": "Test C preemergence", "outline": "as §3"}, "kochia (Kochia scoparia)": {"system": "kochia (Kochia scoparia)", "assay": "Test C preemergence", "outline": "as §3"}, "corn (Zea mays) [10]": {"system": "corn (Zea mays)", "assay": "Test C preemergence", "outline": "as §3"}, "[11]": {"system": "yellow nutsedge (Cyperus esculentus)", "assay": "Test C preemergence", "outline": "as §3"}, "[12]": {"system": "woolly cupgrass (Eriochloa villosa)", "assay": "Test C preemergence", "outline": "as §3"}, "[13]": {"details": "Rate 125 g/ha, scale 0 (no effect) to 100 (complete control)"}, "[14]": {"details": "Rate 500 g/ha, scale 0 to 100, 0 is no effect, 100 is complete control"}, "[15]": {"details": "Rate 125 g/ha, scale 0 to 100, 0 no effect, 100 complete control"}, "[16]": {"details": "preemergence, Rate 31 g/ha, scale 0 to 100"}, "[17]": {"details": "preemergence, Rate 62 g/ha, scale 0 to 100"}, "[18]": {"details": "preemergence, Rate 250 g/ha, scale 0 to 100, 0 no effect, 100 complete control"}}, "data": [{"smiles": "CCOc1cc(N2CCC(n3ccc(C(C)(C)C)n3)C2=O)ccc1C", "note": "(centres unmarked) [Compound 106]", "values": [{"measurement": "Plant response rating, Wheat", "setting": "[1]", "result": 0}, {"measurement": "Plant response rating, Corn", "setting": "corn (Zea mays) [2]; [13]", "result": 0}, {"measurement": "Plant response rating, Corn", "setting": "corn (Zea mays) [2]; [14]", "result": 0}, {"measurement": "Plant response rating, Wild Oat", "setting": "wild oat (Avena fatua)", "result": 0}, {"measurement": "Plant response rating, Barnyardgrass", "setting": "[3]; [13]", "result": 0}, {"measurement": "Plant response rating, Barnyardgrass", "setting": "[3]; [14]", "result": 0}, {"measurement": "Plant response rating, Sunflower", "setting": "Sunflower", "result": 90}, {"measurement": "Ducksalad plant response rating", "setting": "[4]; Rate 250 g/ha", "result": 100}, {"measurement": "Ducksalad plant response rating", "setting": "[4]; Rate 500 g/ha", "result": 100}, {"measurement": "Plant response rating, Ducksalad", "setting": "[4]; Rate 62 g/ha", "result": 0}, {"measurement": "Plant response rating, Ducksalad", "setting": "[4]; Rate 125 g/ha", "result": 0}, {"measurement": "Flatsedge plant response rating", "setting": "[5]; Rate 250 g/ha", "result": 100}, {"measurement": "Flatsedge plant response rating", "setting": "[5]; Rate 500 g/ha", "result": 100}, {"measurement": "Plant response rating, Flatsedge", "setting": "[5]; Rate 62 g/ha", "result": 80}, {"measurement": "Plant response rating, Flatsedge", "setting": "[5]; Rate 125 g/ha", "result": 90}, {"measurement": "Rice plant response rating", "setting": "rice (Oryza saliva); Rate 250 g/ha", "result": 60}, {"measurement": "Rice plant response rating", "setting": "rice (Oryza saliva); Rate 500 g/ha", "result": 90}, {"measurement": "Plant response rating, Rice", "setting": "rice (Oryza saliva); Rate 62 g/ha", "result": 20}, {"measurement": "Plant response rating, Rice", "setting": "rice (Oryza saliva); Rate 125 g/ha", "result": 60}, {"measurement": "Barnyardgrass plant response rating", "setting": "[6]; Rate 250 g/ha", "result": 90}, {"measurement": "Barnyardgrass plant response rating", "setting": "[6]; Rate 500 g/ha", "result": 100}, {"measurement": "Plant response rating, Barnyardgrass", "setting": "[6]; Rate 62 g/ha", "result": 30}, {"measurement": "Plant response rating, Barnyardgrass", "setting": "[6]; Rate 125 g/ha", "result": 50}, {"measurement": "Plant response rating, Johnsongrass", "setting": "[7]; [15]", "result": 100}, {"measurement": "Plant response rating, Johnsongrass", "setting": "[7]; [16]", "result": 30}, {"measurement": "Plant response rating, Johnsongrass", "setting": "[7]; [17]", "result": 70}, {"measurement": "Plant response rating, Johnsongrass", "setting": "[7]; [18]", "result": 100}, {"measurement": "Plant response rating, Pigweed", "setting": "[8]; [15]", "result": 100}, {"measurement": "Plant response rating, Pigweed", "setting": "[8]; [16]", "result": 70}, {"measurement": "Plant response rating, Pigweed", "setting": "[8]; [17]", "result": 100}, {"measurement": "Plant response rating, Pigweed", "setting": "[8]; [18]", "result": 90}, {"measurement": "Plant response rating, Nightshade", "setting": "Nightshade; Rate 31 g/ha, scale 0 to 100", "result": 100}, {"measurement": "Plant response rating, Nightshade", "setting": "Nightshade; Rate 62 g/ha, scale 0 to 100", "result": 100}, {"measurement": "Plant response rating, Nightshade", "setting": "Nightshade; [15]", "result": 100}, {"measurement": "Plant response rating, Nightshade", "setting": "Nightshade; Rate 250 g/ha, scale 0 to 100, 0 no effect, 100 complete control", "result": 100}, {"measurement": "Plant response rating, Lambsquarters", "setting": "[9]; [15]", "result": 100}, {"measurement": "Plant response rating, Lambsquarters", "setting": "[9]; [16]", "result": 100}, {"measurement": "Plant response rating, Lambsquarters", "setting": "[9]; [17]", "result": 100}, {"measurement": "Plant response rating, Lambsquarters", "setting": "[9]; [18]", "result": 100}, {"measurement": "Plant response rating, Soybean", "setting": "soybean (Glycine max); [15]", "result": 100}, {"measurement": "Plant response rating, Soybean", "setting": "soybean (Glycine max); [16]", "result": 80}, {"measurement": "Plant response rating, Soybean", "setting": "soybean (Glycine max); [17]", "result": 100}, {"measurement": "Plant response rating, Soybean", "setting": "soybean (Glycine max); [18]", "result": 100}, {"measurement": "Plant response rating, Kochia", "setting": "kochia (Kochia scoparia); [15]", "result": 100}, {"measurement": "Plant response rating, Kochia", "setting": "kochia (Kochia scoparia); [16]", "result": 100}, {"measurement": "Plant response rating, Kochia", "setting": "kochia (Kochia scoparia); [17]", "result": 100}, {"measurement": "Plant response rating, Kochia", "setting": "kochia (Kochia scoparia); [18]", "result": 100}, {"measurement": "Plant response rating, Corn", "setting": "corn (Zea mays) [10]; [15]", "result": 0}, {"measurement": "Plant response rating, Corn", "setting": "corn (Zea mays) [10]; [16]", "result": 0}, {"measurement": "Plant response rating, Corn", "setting": "corn (Zea mays) [10]; [17]", "result": 0}, {"measurement": "Plant response rating, Corn", "setting": "corn (Zea mays) [10]; [18]", "result": 40}, {"measurement": "Plant response rating, Nutsedge", "setting": "[11]; [15]", "result": 80}, {"measurement": "Plant response rating, Nutsedge", "setting": "[11]; [16]", "result": 10}, {"measurement": "Plant response rating, Nutsedge", "setting": "[11]; [17]", "result": 10}, {"measurement": "Plant response rating, Nutsedge", "setting": "[11]; [18]", "result": 100}, {"measurement": "Plant response rating, Cupgrass, Woolly", "setting": "[12]; [15]", "result": 100}, {"measurement": "Plant response rating, Cupgrass, Woolly", "setting": "[12]; [16]", "result": 60}, {"measurement": "Plant response rating, Cupgrass, Woolly", "setting": "[12]; [17]", "result": 100}, {"measurement": "Plant response rating, Cupgrass, Woolly", "setting": "[12]; [18]", "result": 100}]}]}
